Test results: patent US11078495B2, “Methods and compositions for integration defective lentiviral vectors” (The University of North Carolina at Chapel Hill, priority 2015, dated 2021)

Test system: human embryo fibroblasts (HEFs)
Experiment: Normalized luciferase expression from IDLV (pTK993) in human embryo fibroblasts treated with Velcade and/or sodium butyrate
Format: cell-based
Settings: sample i: HEFs, Velcade 25 nM for 24 hours at transduction, sodium butyrate 5 mM for 48 hours from day 19; harvested 21 days post transduction; normalized to protein content and VCN
Text: FIG. 7: A short-term treatment of host cells with proteasome inhibitor (velcade) at the time of IDLV transduction results in long-term sensitivity of IDLV expression to HDAC inhibitor (sodium butyrate) treatment. A) Depiction of a conventional self-inactivating HIV-1 vector (pTK993) from which the firefly luciferase is expressed under the control of a CMV promoter. […] B) To characterize the short- and long-term effects of HDAC and proteasome inhibitors on IDLV gene expression, human embryo fibroblasts (HEFs) were transduced with IDLV carrying the firefly luciferase cDNA under the control of a CMV promoter. HEF transduction was carried out either in the absence (samples a, d, g and h) or in the presence of Velcade (25 nM) for 24 hours (samples b, e and i) or sodium butyrate (5 mM) for 48 hours (samples c and f). At day 19 post transduction, sample g was treated with Velcade (25 nM) for 24 hours, while samples h and i were treated with sodium butyrate (5 mM) for 48 hours. Cell samples were harvested at either 48 hours (samples a-c) or 21 days post-transduction and analyzed for luciferase expression, which was normalized to protein content and vector copy number per diploid cell genome (VCN). The readout of normalized luciferase expression is shown above each sample. […]

## CC(C)C[C@H](NC(=O)[C@H](Cc1ccccc1)NC(=O)c1cnccn1)B(O)O [Velcade]
  fold of increase in IDLV expression (normalized luciferase) relative to sample-control: 75 fold
